{
  "source": "BindingDB's records for patent US20230391748",
  "about": "(Rigel Pharmaceuticals, 2023)",
  "target": "T1, Interleukin-1 receptor-associated kinase 4 (Homo sapiens, UniProt Q9NWZ3)",
  "T1 sequence (Q9NWZ3 whole entry)": "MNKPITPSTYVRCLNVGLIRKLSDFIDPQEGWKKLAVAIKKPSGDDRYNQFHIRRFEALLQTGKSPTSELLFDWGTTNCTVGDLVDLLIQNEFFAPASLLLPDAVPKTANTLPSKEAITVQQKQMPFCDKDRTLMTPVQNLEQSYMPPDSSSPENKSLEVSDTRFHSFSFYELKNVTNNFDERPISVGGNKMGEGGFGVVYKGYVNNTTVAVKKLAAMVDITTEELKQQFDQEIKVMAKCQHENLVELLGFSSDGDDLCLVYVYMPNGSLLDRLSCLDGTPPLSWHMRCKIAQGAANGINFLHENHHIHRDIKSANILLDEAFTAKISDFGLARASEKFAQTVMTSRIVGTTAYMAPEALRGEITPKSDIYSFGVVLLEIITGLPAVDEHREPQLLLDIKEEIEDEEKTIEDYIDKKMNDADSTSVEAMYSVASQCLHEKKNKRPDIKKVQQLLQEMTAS",
  "experiment": "IRAK4 ADP-Glo Assay",
  "procedure": "The ADP-Glo reagents were thawed at ambient temperature. The Kinase Detection Reagent was prepared by mixing kinase detection buffer with the lyophilized kinase detection substrate, and set aside.A stock volume of 5 Reaction Kinase Buffer was made with a final concentration of 100 mM MgCl2, 200 mM Tris-HCl, and 0.5 mg/ml of BSA, in distilled H2O with a final pH7.4. A 2 working stock volume of Reaction Kinase Buffer was made containing a final concentration of 100 μM DTT.The components of IRAK4 Enzyme were thawed on ice. Diluted IRAK4 in 1 Kinase Reaction Buffer (diluted from 2 buffer) was prepared at 5.0 ng/μl. […] Then diluted 1:5 in 2 Reaction Buffer in a 96 well plate. 1.0 μl was transferred to a 384 well plate in duplicate. […] 1 μl of 1 mg/ml stock solution of MBP substrate was added NOTE: MBP can be combined with ATP mix with equal volume and then added at 2 μl/well. Final reaction volume was 5 μl.The plate was centrifuged and the reaction mixture was incubated at room temperature for 60 minutes or at 30 C. for 30 minutes.The reaction was terminated and the remaining ATP was depleted by adding 5 μl of ADP-Glo Reagent. The 384-well plate was centrifuged and then the reaction mixture was incubated for another 40 minutes at ambient temperature.",
  "data": [
    {"smiles": "CC(C)Oc1cc2c(OC[C@@H]3CC(F)(F)C(=O)N3)ncc(C#CC3(O)CCN(C(=O)OC(C)(C)C)CC3)c2cc1C(N)=O", "note": "[US20230391748, Compound I-52]", "values": [
      {"measurement": "IC50", "result": 18.3, "unit": "nM"}
    ]},
    {"smiles": "CC(C)Oc1cc2c(O[C@@H]3CCCNC3)ncc(C#CC3(O)CCCC3)c2cc1C(N)=O", "note": "[US20230391748, Compound I-85]", "values": [
      {"measurement": "IC50", "result": 35, "unit": "nM"}
    ]}
  ]
}
